Test results taken from US7196057B2, “Fusion proteins for insect control” (University of Durham, priority 2001, dated 2007).
Entries after “also recorded” stand apart in the source; their conditions may differ.

How the values were obtained:
[1] = tested on: Vth stadium L. oleracea larvae; test: Insect bioassay 1: artificial diet feeding, 24 h; format: in vivo, Lacanobia oleracea; details: 1.5% of dietary protein (1.5 mg/5 g diet), 24 h exposure, n=7
Protocol: (§1) A potato leaf based artificial diet (24) was used to assay recombinant proteins against newly moulted Vth stadium L. oleracea which were starved for 24 h prior to exposure to diets. To encourage feeding, sucrose was incorporated at 0.05% (w/w) in assays 2 A and B and at 0.5% (w/w) in assay 3. Individual larvae were maintained in clear plastic pots containing moist filter paper to prevent diet desiccation. Larval wet weights (−/+0.1 mg) were recorded before, during, and after exposure to treatments, and diet consumption was estimated on a wet weight basis. The amounts of recombinant proteins added to diets were based on activity values derived from agglutination assays. Larvae (n=7 per treatment) were exposed to control diet; control diet containing ammonia (0.0002 v/w); diet containing recombinant GNA at a concentration of approx. 1.5% (w/w) of dietary protein (1.5 mg/5 g diet wet weight) and diet containing recombinant FP at a concentration of approx. 1.5% (w/w) of dietary protein for 24 h.

[2] = tested on: Vth instar L. oleracea larvae; test: Insect bioassay 2A: artificial diet feeding, 3 days; format: in vivo, Lacanobia oleracea; details: 0.5% of dietary protein (0.5 mg/5 g diet), 3 days exposure, n=8
Protocol: as §1, with “assays.” for “assays. Larvae (n=7 per treatment) were exposed to control diet; control diet containing ammonia (0.0002 v/w); diet containing recombinant GNA at a concentration of approx. 1.5% (w/w) of dietary protein (1.5 mg/5 g diet wet weight) and diet containing recombinant FP at a concentration of approx. 1.5% (w/w) of dietary protein for 24 h.”
Larvae (n=8 per treatment) were exposed for 3 days to control diet; control diet containing ammonia; diet containing native GNA at approx. 0.5% (w/w) of dietary protein: diet containing native GNA and synthetic Manse-AS at a total concentration of approx. 0.5% (w/w) (i.e. ratio of GNA: Manse-AS equivalent to FP and diet containing FP at approx. 0.5% (w/w) of dietary protein.

With “GNA: Galanthus nivalis agglutinin (snowdrop lectin); standard GNA obtained from Vector Laboratories” as the substance, how does the “mean increase/decrease in weight of larvae” value [1] read?
The value was “more than 50%”.

And the “increase/decrease in mean wet weight of larvae” value [2]?
Its value is “four fold increase in weight; also recorded: fourfold increase in weight”.

For “recombinant GNA: Galanthus nivalis agglutinin (snowdrop lectin), 109 residues, expressed in E. coli with N-terminal His tag, SEQ ID NO: 2”, which “mean increase/decrease in weight of larvae” value [1] is on record?
The value was “more than 50%”.
